Experimental findings from patent US8734775B2, “Chemokine derived peptides that bind with chemokine receptor CXCR3 and uses for chronic wound and angiogenesis inhibition treatments” (University of Pittsburgh, priority 2011, dated 2014) are described below.

Type in all cases: cell-based, human
Test [1] concerns HMEC-1 cells. Description: Scratch assay of endothelial cell motility. As to conditions: 24 hours. As to the method: To determine whether IP-10dp inhibits endothelial cell motility, a conventional “scratch assay” was performed. ELR-negative chemokines, such as IP-10, inhibit fibroblast and endothelial cell motility. IP-10 has been shown in prior literature to inhibit HMEC-1 cells' motility in the presence of angiogenic growth factors VEGF165 and bFGF. Thus, a scratch assay comparison was conducted to examine whether, and to what extent, IP-10dp could mimic the inhibitory effects of the full length IP-10. HMEC-1 cells were plated at 2.5×10^5 cells/well in 12 well culture plates and grown to 80 to 85% confluence and quiesced in 0.5% dialyzed fetal bovine serum for 24 hours at 37° C. in 5% CO2. The cells were washed one time with PBS and then incubated in 0.5% dialyzed MDCB 131 media for 24 hours at 37° C. in 5% CO2. The cultures were scraped with a rubber policeman making a 1 mm wide denuded area. […] Images were taken at time zero and 24 hours, and the relative distance traveled by the cells into the a cellular area was determined using MetaMorph. The HMEC-1 culture images were analyzed for the ability of the cells to migrate into a denuded area over a 24 hour period in the presence or absence of VEGF165.

Test [2] concerns HMEC-1 cells. Description: Tube dissociation assay on GFR-Matrigel. As to conditions: IP-10dp 10 μM. The method, then:
For this tube dissociation assay, HMEC-1 cells were first re-suspended in 1% FBS MCDB131 media containing VEGF (75 ng/ml) and incubated on GFR-Matrigel for 24 hrs at 37° C. to allow tube formation (the average result reflected labeled “24 VEGF . . . ” in FIG. 5B). The media was removed and replaced with combinations of VEGF (75 ng/ml), IP-10 (300 ng/ml), or IP-10dp (10 μM) then incubated for another 24 hours. After 48 hours, tubes were still present in the controls treated only with VEGF (labeled 48 hr VEGF in FIG. 5B).
The cells cultures were imaged to assess tube formation using similar procedures to that described above for Experiment 3. […]
Again, quantification of the endothelial tube area for the various cell cultures was determined using MetaMorph, and the data reported in the graph are of at least N=6 and normalized to no treatment (average±SEM), with *P<0.05.

The subject of test [3] is HMEC-1 cells. Description: Tube formation after pre-treatment with CXCR3-neutralizing antibody. The method, then: To determine if the IP-10dp peptide is acting through the same signaling pathways as IP-10, an experiment was conducted using a CXCR3-neutralizing antibody (also referred to herein as CXCR3 Ab) to assess that antibody's impact upon IP-10dp's ability to block tube formation. HMEC-1 cells were grown, detached and re-suspended in serum-free media and all were pretreated with CXCR3 Ab (0.5 μg/ml) 30 minutes prior to the addition of VEGF (75 ng/ml), IP-10 (300 ng/ml), IP-10dp (10 μM) and/or Immunoglobulin G (or “IgG,” as control). The thus-treated cells (1×10^4 cells/well) were added to 24-well culture plates coated with growth factor reduced Matrigel and incubated for 24 hours, and endothelial tubes were allowed to form as described above. Images were obtained as above. […]
Quantification of the endothelial tubes formed was performed as above, using MetaMorph, with the data being shown in the graphs of FIG. 6B are of N=6 and normalized to no treatment (average±SEM), and with *P<0.05.

Test [4] has as its system HMEC-1 cells transfected with CXCR3 siRNA. Description: Scratch assay in cells transfected with CXCR3 siRNA. Conditions: CXCR3 knockdown; procedure of Experiment 2. As to the method: In the various experiments described below, to the extent not otherwise noted, CXCR3 siRNA transfection was preformed according to the procedure as previously described by Koh et al. (“Methods in Enzymology,” 2008, vol 443, p. 84), and summarized briefly as follows. HMEC-1 cells were plated in 6 well tissue culture plate at 4.0×10^5 cells/well in complete MCDB131 media and incubated overnight. The cells were ˜75% confluent. The media was removed and replaced with serum free Opti-Mem and incubated for 30 minutes. Dharmafect #4 was added to Opti-Mem to a final concentration of 2.5% (final volume […]) then incubated for 5 minutes at room temp. In parallel, CXCR3 siRNA was diluted in Opti-Mem to a final concentration of […] then incubated for 5 minutes at room temp. CXCR3 siRNA was a pool of equal concentration from Sigma and Santa Cruz. The Dharmafect solution was added to the CXCR3 siRNA pool and incubated for 20 minutes at room temp. […]
To determine whether IP-10dp inhibits endothelial cell motility, a conventional “scratch assay” was performed. […] Images were taken at time zero and 24 hours, and the relative distance traveled by the cells into the a cellular area was determined using MetaMorph. The HMEC-1 culture images were analyzed for the ability of the cells to migrate into a denuded area over a 24 hour period in the presence or absence of VEGF165. […]

In the case of “PESKAIKNLLKAVSKEMSKRSP (IP-10dp; listed as Homo sapiens) [synthetic fragment of IP-10 comprising residues 78-98, the C-terminal α-helical domain]”, the “inhibition of endothelial cell migration, excess over IP-10” value with HMEC-1 cells [1] (IP-10dp 10 μM vs IP-10 200 ng/ml) worked out at 10%. The “inhibition of HMEC-1 cell motility” value in the test on HMEC-1 cells [1] (IP-10dp 10 μM, with and without VEGF (100 ng/ml)) is on record as “inhibited motility”. Further, the “endothelial cords following treatment” value in the test on HMEC-1 cells [2] (24-48 hrs) was “significant decrease in endothelial cords”. Further, in the test on HMEC-1 cells [2] (treatment 24-48 hrs, presence and absence of VEGF, IP-10 300 ng/ml), the “dissociation of newly formed tubes” value is recorded as “induce dissociation of newly formed tubes”. Besides, in the test with HMEC-1 cells [3] (CXCR3 Ab 0.5 μg/ml 30 minutes before, IP-10 300 ng/ml, IP-10dp 10 μM), the “tube formation inhibition after CXCR3 Ab pre-treatment” value is on record as “significantly blocked”. Besides, the “effect on VEGF-driven tube formation when CXCR3 receptor neutralized” value in the test with HMEC-1 cells [3] (CXCR3 Ab 0.5 μg/ml, VEGF 75 ng/ml) was “unable to override the angiogenic signals from VEGF”. Moreover, the “inhibition of VEGF-induced motility in CXCR3 siRNA-transfected cells” value in test [4] is listed as “unable to inhibit VEGF-induced motility”.
